This passage reports EC50 and Emax results from article PMC2099433, “The binding site for neohesperidin dihydrochalcone at the human sweet taste receptor” (BMC Structural Biology, 2007).

As a reminder, the EC50 is the concentration at which the effect is half-maximal.

Numbering of substitutions follows the chain as printed. Where a SMILES comes first, the peptide text is derived from it.

In assay [1] the target is T1, hTAS1R2 + hTAS1R3 A733V^5.46 (Homo sapiens, UniProt Q7RTX0+Q8TE23, A733V).
T1 construct: expressed in transfected cells; host or cells: HEK293T cells stably expressing G16Gust44
T1 sequence (Q8TE23 20-839): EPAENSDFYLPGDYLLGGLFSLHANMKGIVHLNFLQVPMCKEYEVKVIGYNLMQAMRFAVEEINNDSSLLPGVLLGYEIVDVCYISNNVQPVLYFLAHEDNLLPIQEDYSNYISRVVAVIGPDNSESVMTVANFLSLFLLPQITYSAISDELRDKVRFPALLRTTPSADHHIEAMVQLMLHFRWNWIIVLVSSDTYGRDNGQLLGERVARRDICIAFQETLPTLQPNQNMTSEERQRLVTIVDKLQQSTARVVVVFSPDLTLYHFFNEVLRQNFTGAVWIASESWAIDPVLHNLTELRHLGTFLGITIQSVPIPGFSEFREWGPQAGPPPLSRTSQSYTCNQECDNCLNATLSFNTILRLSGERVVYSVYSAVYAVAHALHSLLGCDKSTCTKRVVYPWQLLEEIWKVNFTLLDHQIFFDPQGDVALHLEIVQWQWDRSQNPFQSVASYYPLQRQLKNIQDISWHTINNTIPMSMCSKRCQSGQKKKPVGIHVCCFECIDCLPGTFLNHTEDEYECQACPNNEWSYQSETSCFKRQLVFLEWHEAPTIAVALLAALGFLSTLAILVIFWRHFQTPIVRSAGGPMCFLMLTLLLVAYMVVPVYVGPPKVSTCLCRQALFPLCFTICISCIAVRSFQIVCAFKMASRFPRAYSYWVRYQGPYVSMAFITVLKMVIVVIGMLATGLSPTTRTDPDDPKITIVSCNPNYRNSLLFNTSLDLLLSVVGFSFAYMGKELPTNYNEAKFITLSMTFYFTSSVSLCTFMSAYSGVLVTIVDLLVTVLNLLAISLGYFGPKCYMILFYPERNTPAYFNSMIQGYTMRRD
T1 sequence (Q7RTX0 21-852 A733V): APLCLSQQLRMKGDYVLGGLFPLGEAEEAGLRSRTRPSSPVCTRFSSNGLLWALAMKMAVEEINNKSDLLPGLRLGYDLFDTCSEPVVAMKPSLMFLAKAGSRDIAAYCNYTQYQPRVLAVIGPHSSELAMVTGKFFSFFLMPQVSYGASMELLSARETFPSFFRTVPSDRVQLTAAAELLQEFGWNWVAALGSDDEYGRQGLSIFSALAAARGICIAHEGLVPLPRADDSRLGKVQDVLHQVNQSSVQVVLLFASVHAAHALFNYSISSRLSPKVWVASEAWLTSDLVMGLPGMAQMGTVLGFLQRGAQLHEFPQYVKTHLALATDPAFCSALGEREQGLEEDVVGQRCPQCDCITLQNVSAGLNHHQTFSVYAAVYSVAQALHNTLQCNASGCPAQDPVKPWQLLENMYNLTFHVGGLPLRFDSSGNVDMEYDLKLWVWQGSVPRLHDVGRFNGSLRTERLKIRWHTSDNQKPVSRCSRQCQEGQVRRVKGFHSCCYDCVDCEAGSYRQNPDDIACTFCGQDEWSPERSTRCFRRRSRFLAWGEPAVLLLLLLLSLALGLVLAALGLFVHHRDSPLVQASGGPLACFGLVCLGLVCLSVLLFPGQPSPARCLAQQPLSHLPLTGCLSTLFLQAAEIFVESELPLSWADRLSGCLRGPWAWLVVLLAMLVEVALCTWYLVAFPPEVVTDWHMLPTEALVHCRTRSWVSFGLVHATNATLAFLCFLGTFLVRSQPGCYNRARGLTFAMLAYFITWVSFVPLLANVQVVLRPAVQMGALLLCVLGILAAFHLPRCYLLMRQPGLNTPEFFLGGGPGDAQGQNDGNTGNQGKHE
The assay is described as follows: Calcium response (FLIPR), hTAS1R3 mutant coexpressed with hTAS1R2. The class given is cell-based. The following applies: variant A733V^5.46; for Emax: read-out: maximal signal (% of wt). Summed up: (§1)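 Read-out: FLIPR calcium signal as ΔF/F = (F-F0)/F0, corrected for mock-transfected cells. Cells were HEK293T stably carrying G16Gust44, transiently transfected with HSV-tagged receptor cDNAs and dye-loaded with Fluo4-AM 24 h post transfection.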

The target in assay [2] is T2, hTAS1R2 + hTAS1R3 S729A^5.42 (Homo sapiens, UniProt Q7RTX0+Q8TE23, S729A).
T2 construct: expressed in transfected cells; host or cells: HEK293T cells stably expressing G16Gust44
T2 sequence (Q8TE23 20-839): T1 sequence (Q8TE23 20-839)
T2 sequence (Q7RTX0 21-852 S729A): T1 sequence (Q7RTX0 21-852 A733V) with S709A, V713A
The description is as above. The following applies: variant S729A^5.42; for Emax: read-out: maximal signal (% of wt). Type of assay: cell-based. The gist of the method:
as §1

`COc1ccc(CCC(=O)c2c(O)cc(O[C@@H]3O[C@H](CO)[C@@H](O)[C@H](O)[C@H]3O[C@@H]3O[C@@H](C)[C@H](O)[C@@H](O)[C@H]3O)cc2O)cc1O` [NHDC, neohesperidin dihydrochalcone]: the EC50 in assay [1] worked out at 100 ± 20 µM; in assay [2], 200 ± 100 µM. Further, the results for the Emax in assay [1] and in assay [2] were 133 ± 8% and 80 ± 16%, respectively.
In the case of `COC(=O)[C@H](Cc1ccccc1)NC(=O)[C@@H](N)CC(=O)O` [aspartame] (HELM PEPTIDE1{D.F.[CO[*:1]]}$$$$V2.0), the figures for the EC50 in assay [1] and in assay [2] were 1100 ± 300 µM and 900 ± 400 µM, respectively. For the same compound, the Emax in assay [1] amounted to 92 ± 80%; in assay [2] it was 72 ± 20%.
